From US4581453A, “Guanidinothiazole derivatives containing alkylene bridges, and their use for influencing lipid metabolism” (Bayer Aktiengesellschaft, priority 1982, dated 1986)
In brackets after ≈: the same amount, converted by molar mass. Structures can show the parent of a compound that is named as a salt.

Key:
Candida albicans = experiment: Antimycetic in vitro activity, series dilution test; format: cell-based; details: meat extract/dextrose broth, 24 to 96 hours, 20° C.; for MIC: read-out: Minimum inhibitory concentration
Protocol: (§1) The in vitro tests were carried out in a series dilution test using germ inocula of on average 5×10^4 germs/ml of substrate. The nutrient medium used was
(§2) (a) Sabourands' milieu d'epreuve for dermatophytes and moulds; and
(§3) (b) meat extract/dextrose broth for yeasts.
(§4) The incubation temperature was 20° C. and the incubation time was 24 to 96 hours for yeasts and 96 hours for dermatophytes and moulds.

Torulopsis glabrata = experiment: as above; format: cell-based; details: meat extract/dextrose broth, 24 to 96 hours, 20° C.; for MIC: Nakaseomyces glabratus, read-out: Minimum inhibitory concentration
Protocol: as §1, §2, §3, §4

[1] = system: Trichophyton mentagrophytes; experiment: as above; format: cell-based; details: Sabourands' milieu d'epreuve, 96 hours, 20° C.; for MIC: read-out: Minimum inhibitory concentration
Protocol: as §1, §2, §3, §4

Microsporum canis = experiment: as above; format: cell-based; details: Sabourands' milieu d'epreuve, 96 hours, 20° C.; for MIC: read-out: Minimum inhibitory concentration
Protocol: as §1, §2, §3, §4

Aspergillus fumigatus = experiment: as above; format: cell-based; details: Sabourands' milieu d'epreuve, 96 hours, 20° C.; for MIC: read-out: Minimum inhibitory concentration
Protocol: as §1, §2, §3, §4

[2] = system: platelet aggregation in rat PRP; experiment: Platelet aggregation-inhibiting action (PAH) ex vivo, thromboatherosclerosis experiment; format: in vivo; details: po, 1.5 h, read-out: PAH ex vivo: Activity, ED50 (dose/concentration range)
Protocol: The change in optical density of the sample of PRP was recorded over a period of 6 minutes and was determined via the reading after 6 minutes. The percentage inhibition is calculated from the corresponding readings. Moreover, the platelet aggregation was also determined in the context of the thromboatherosclerosis experiment. In carrying out these experiments, the active substance was administered to the animals orally in a Tylose suspension over a period of 10 days. On the 10th day, the animals were exsanguinated 90 minutes after the oral administration of the substance, and the PRP was isolated by means of centrifugation. After the PRP has been isolated, in vitro measurement of the aggregation inhibition starts, analogously to the process which has been described for the in vitro experiments; but without pre-incubation of the samples. 3 parts of rat PRP were also diluted with one part of physiological saline solution.
Atherosclerotic plaques are induced in rats by combination of two noxae (risk factors), that is to say vascular lesion and hyperlipaemia. By supercooling of the arteria carotis comm. (2 minutes, -10° C.), partial or complete endothelial scaling occurs in a locally restricted area. Proliferation of the intima occurs within 10 days, which is a relatively short period for such experiments, and largely corresponds to the early stages of atherosclerotic plaques in humans. The proliferation zones are removed and weighed. The moist weight in the supercooled segment of 1 cm is about 200-300 μg. The animals are additionally given a high-fat diet having the following composition: […]

liver cholesterol = experiment: Cholesterol loading test; format: in vivo, Wistar rats; details: rat, 24 hours
Protocol: Cholesterol loading tests were carried out on conscious male or female Wistar rats weighing between 130-230 g.
Cholesterol and the substance to be tested were simultaneously administered orally in 0.75% strength tragacanth suspension. After 24 hours, the animals were sacrificed and the cholesterol content of the liver was determined. Cholesterol was determined by the Liebermann-Burchard method using the test combination of Boehringer Mannheim. Control animals received a corresponding volume of cholesterol/tragacanth suspension without the test substance. To monitor the rise in cholesterol as a result of cholesterol loading, tragacanth suspension containing no cholesterol was administered orally to another control group.

[3] = system: proliferation of the intima (arteria carotis comm.); experiment: Anti-atherosclerotic action, thromboatherosclerosis model; format: in vivo; details: po; rat, per orally; read-out: anti-atherosclerotic: Activity, ED50 (dose/concentration range)
Protocol: Because of some fluid transitions between atherosclerosis and thrombosis, we have called the method used "thromboatherosclerosis model".
Folia angiologica 28, 85 (1980).
Atherosclerotic plaques are induced in rats by combination of two noxae (risk factors), that is to say vascular lesion and hyperlipaemia. By supercooling of the arteria carotis comm. (2 minutes, -10° C.), partial or complete endothelial scaling occurs in a locally restricted area. Proliferation of the intima occurs within 10 days, which is a relatively short period for such experiments, and largely corresponds to the early stages of atherosclerotic plaques in humans. The proliferation zones are removed and weighed. The moist weight in the supercooled segment of 1 cm is about 200-300 μg. The animals are additionally given a high-fat diet having the following composition:
52% of normal feed (Altromin®).
The lipid deposits are stained with the fat-soluble dyestuff Sudan IV and can be determined as an additional parameter.

Cyclooxygenase = target: T1, Cyclooxygenase (Homo sapiens, UniProt P23219); experiment: Arachidonic acid metabolism in platelets: cyclooxygenase inhibition; format: cell-based; details: 3H-arachidonic acid, read-out: Cyclooxygenase inhibition: Activity, ED50 (dose/concentration range) (converted)
T1 construct: endogenous in cells; host or cells: human platelets
T1 sequence (P23219 24-599): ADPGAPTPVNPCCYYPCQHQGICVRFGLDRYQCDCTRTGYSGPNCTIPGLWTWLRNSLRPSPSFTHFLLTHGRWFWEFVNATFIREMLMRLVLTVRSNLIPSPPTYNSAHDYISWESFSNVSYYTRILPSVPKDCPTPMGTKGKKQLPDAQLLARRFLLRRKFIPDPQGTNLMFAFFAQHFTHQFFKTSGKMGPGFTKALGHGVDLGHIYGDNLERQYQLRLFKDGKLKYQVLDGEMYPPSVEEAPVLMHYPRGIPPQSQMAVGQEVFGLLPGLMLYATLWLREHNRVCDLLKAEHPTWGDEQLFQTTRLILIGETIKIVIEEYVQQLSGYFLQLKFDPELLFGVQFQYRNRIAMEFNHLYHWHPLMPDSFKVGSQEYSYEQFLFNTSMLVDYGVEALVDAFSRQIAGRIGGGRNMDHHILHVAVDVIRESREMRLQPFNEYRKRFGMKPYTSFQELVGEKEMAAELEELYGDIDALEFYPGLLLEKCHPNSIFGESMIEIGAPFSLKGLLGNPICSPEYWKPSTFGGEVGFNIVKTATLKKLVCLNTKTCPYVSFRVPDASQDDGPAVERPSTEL
Text: In human platelets, ^3 H-arachidonic acid is converted into the products of the cyclooxygenase/thromboxane synthetase path, in particular thromboxane A2, and those of the lipoxygenase path, HETE. Separation of the resulting products by thin layer chromatography gives a characteristic pattern. Inhibitors of the individual enzymatic reactions modify this pattern in a typical manner (Bailey, J. M. et al., Prostaglandins 13, 479-492 (1977)). The action of the compounds according to the invention on individual reactions in arachidonic acid metabolism are shown in Table 2.

[4] = system: proliferation of the intima (arteria carotis comm.); details: rat; heparin following parenteral administration; cited from earlier work

| Molecule | MIC (Candida albicans) | MIC (Torulopsis glabrata) | MIC [1] | MIC (Microsporum canis) | MIC (Aspergillus fumigatus) | also measured |
| --- | --- | --- | --- | --- | --- | --- |
| Clc1ccc(C2(Cn3ccnc3)OCC(COc3ccc(-c4ccccc4)cc3)O2)c(Cl)c1 (centres unmarked) [Doconazol, doconazol, reference compound] |  |  |  |  |  | Minimum inhibitory concentration (Candida albicans): < 1 µg/mL; Minimum inhibitory concentration (Torulopsis glabrata): < 1 µg/mL; Minimum inhibitory concentration [1]: < 1 µg/mL; Minimum inhibitory concentration (Microsporum canis): 8 µg/mL (≈ 16.6 µM); Minimum inhibitory concentration (Aspergillus fumigatus): 4 µg/mL (≈ 8.31 µM) |
| Cc1nc(N=C2NCCCN2)sc1C(=O)Nc1ccc(Cl)cc1 [Example 17] |  |  |  |  |  | ED50 [2]: 100 mg/kg; Reduction in the increase in liver cholesterol in percent in comparison with the control, following oral cholesterol loading (liver cholesterol; 100 mg/kg per orally): 56.1% |
| c1ccc(-c2csc(N=C3NCCCN3)n2)cc1 [Example 22] | 4 µg/mL (≈ 15.5 µM) | 32 µg/mL (≈ 124 µM) | < 1 µg/mL | < 1 µg/mL | < 1 µg/mL |  |
| c1ccc2c(-c3csc(N=C4NCCCN4)n3)cccc2c1 [Example 24] | 2 µg/mL (≈ 6.48 µM) | 8 µg/mL (≈ 25.9 µM) | < 1 µg/mL | < 1 µg/mL | < 1 µg/mL |  |
| c1cc2c(cc1-c1csc(N=C3NCCCN3)n1)CCCC2 [Example 25] |  |  |  |  |  | ED50 [2]: 100 mg/kg; Reduction in the increase in liver cholesterol in percent in comparison with the control, following oral cholesterol loading (liver cholesterol; 10 mg/kg per orally): 65.3%; Reduction in the increase in liver cholesterol in percent in comparison with the control, following oral cholesterol loading (liver cholesterol; 30 mg/kg per orally): 78.1% |
| Clc1ccc(-c2csc(N=C3NCCCN3)n2)c(Cl)c1 [Example 27] | < 1 µg/mL | 16 µg/mL (≈ 48.9 µM) | < 1 µg/mL | < 1 µg/mL | 8 µg/mL (≈ 24.4 µM) |  |
| Cc1cc(Cl)ccc1-c1csc(N=C2NCCCN2)n1 [Example 33, 2-(N-(4'-(4"-Chloro-2"-methylphenyl)-thiazol-2'-yl)imino)-hexahydropyrimidine hydrochloride] | 2 µg/mL | 16 µg/mL | 2 µg/mL | 2 µg/mL | 2 µg/mL |  |
| CN1CCCNC1=Nc1nc(-c2ccccc2)cs1 [Example 49] |  |  |  |  |  | ED50 [3]: 100 mg/kg; ED50 [2]: 100 mg/kg; IC50 (Cyclooxygenase): 36.7 µM |
| CC(=O)N1CCN(c2ccc(OCC3COC(Cn4ccnc4)(c4ccc(Cl)cc4Cl)O3)cc2)CC1 (centres unmarked) [Ketoconazol, ketoconazol, reference compound] | < 1 µg/mL | 1 µg/mL (≈ 1.88 µM) | < 1 µg/mL | 4 µg/mL (≈ 7.53 µM) | 16 µg/mL (≈ 30.1 µM) |  |
| O=C(O)c1cccnc1 [nicotinic acid] |  |  |  |  |  | effectiveness in thromboatherosclerosis model (in words), prior agents [4]: ineffective |
| heparin |  |  |  |  |  | effectiveness in thromboatherosclerosis model (in words), prior agents [4]: effective |
| neomycin |  |  |  |  |  | effectiveness in thromboatherosclerosis model (in words), prior agents [4]: ineffective |
